According to patent US20090054417A1, “COMPOUNDS AND COMPOSITIONS AS MODULATORS OF STEROID HORMONE NUCLEAR RECEPTORS” (IRM LLC, priority 2004, published 2009):

Columns and labels:
Assay type in all cases: cell-based
MR = molecular target: T1, MR (Homo sapiens, UniProt P08235); assay: Functional assay of mineralocorticoid receptor antagonism (mammalian two hybrid luciferase reporter, 293T cells, aldosterone-stimulated); conditions: antagonism of MR trans-activation induced by 0.4 nM aldosterone
T1 construct: expressed in transfected cells; host or cells: 293T cells
T1 sequence (P08235 672-984): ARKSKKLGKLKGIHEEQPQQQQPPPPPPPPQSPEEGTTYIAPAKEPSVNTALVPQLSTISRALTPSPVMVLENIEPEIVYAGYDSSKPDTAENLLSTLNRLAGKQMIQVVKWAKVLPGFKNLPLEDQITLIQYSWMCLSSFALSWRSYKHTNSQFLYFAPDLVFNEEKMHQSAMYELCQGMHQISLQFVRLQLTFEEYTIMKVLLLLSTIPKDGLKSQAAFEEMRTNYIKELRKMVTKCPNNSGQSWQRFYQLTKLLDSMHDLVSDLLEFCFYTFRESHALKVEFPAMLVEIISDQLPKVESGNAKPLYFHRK
Description: The MR antagonist activity of the compounds is determined in a mammalian two hybrid reporter system. The N-terminus of MR (MR-NT, sequence coding amino acid 1-597) is fused to the activation domain of the VP16 gene. The ligand binding domain of MR (MR-LBD, sequence encoding amino acid 672-984) is fused to the DNA binding domain of the yeast Gal4 gene. The MR gene is cloned from a human kidney cDNA library with PCR.
The assay is performed in 384 well plates. Briefly, 293T cells (ATCC) are transfected with expression vectors for Gal-4-MR-LBD and VP16-MR NT, and a luciferase reporter vector containing Gal4 binding sequence (pG5-Luc). Cells are plated in 384 well plates immediately after transfection (approximately 3×10^4 cells/well in 50 μl medium). The medium is supplemented with 3% charcoal-dextran treated fetal bovine serum (Hyclone). Twenty four hours after transfection, compounds prepared in DMSO are transferred to the cells. The cells are then stimulated with 0.4 nM final concentration of aldosterone (Acros) and incubated at 37° C. for another 24 hours before the luciferase activity is assayed with 20 μl of Bright-Glo (Promega) using a luminometer (CLIPR). The expression of luciferase is used as an indicator of aldosterone-induced MR trans-activation. Each compound is tested in duplicates with 12-concentration titration. IC50 values (defined as the concentration of test compound required to antagonize 50% of aldosterone-induced MR activity) are determined from the dose-response curve.

AR = molecular target: T2, AR (Homo sapiens, UniProt P10275); assay: Functional assay of androgen receptor antagonism (MMTV luciferase reporter in MDA-kb2 cells, dihydrotestosterone-stimulated); conditions: antagonism of AR trans-activation induced by 0.3 nM dihydrotestosterone
T2 sequence (P10275 1-920 Q868H): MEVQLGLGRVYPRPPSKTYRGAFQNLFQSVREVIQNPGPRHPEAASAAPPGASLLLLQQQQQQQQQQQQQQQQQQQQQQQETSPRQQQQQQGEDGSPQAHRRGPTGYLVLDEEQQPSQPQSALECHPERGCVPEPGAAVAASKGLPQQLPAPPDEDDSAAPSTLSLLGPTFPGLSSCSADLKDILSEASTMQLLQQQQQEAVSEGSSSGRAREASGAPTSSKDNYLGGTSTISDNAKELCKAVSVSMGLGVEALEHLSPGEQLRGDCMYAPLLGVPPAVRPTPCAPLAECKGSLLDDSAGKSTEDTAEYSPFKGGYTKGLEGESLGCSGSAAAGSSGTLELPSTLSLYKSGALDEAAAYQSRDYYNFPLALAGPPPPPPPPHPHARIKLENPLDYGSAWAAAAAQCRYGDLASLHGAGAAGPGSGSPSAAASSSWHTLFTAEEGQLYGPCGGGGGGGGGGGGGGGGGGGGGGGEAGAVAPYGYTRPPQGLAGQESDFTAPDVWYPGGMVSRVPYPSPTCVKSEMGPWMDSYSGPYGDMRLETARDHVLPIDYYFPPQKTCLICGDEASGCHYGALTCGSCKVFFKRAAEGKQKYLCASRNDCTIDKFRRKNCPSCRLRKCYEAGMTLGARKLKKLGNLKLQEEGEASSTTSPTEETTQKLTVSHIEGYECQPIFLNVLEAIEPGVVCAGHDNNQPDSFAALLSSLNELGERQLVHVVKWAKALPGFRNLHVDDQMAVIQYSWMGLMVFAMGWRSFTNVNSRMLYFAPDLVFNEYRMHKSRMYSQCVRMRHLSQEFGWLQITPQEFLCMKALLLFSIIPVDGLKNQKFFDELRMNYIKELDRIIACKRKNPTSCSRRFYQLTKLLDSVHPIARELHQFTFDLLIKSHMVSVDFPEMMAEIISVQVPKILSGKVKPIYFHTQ
Description: The AR antagonist activity of the compounds is determined with the MDA-Kb2 cell line (ATCC), which stably expresses the MMTV luciferase reporter. The MMTV promoter is a mouse mammary tumor virus promoter that contains androgen receptor response elements. […] Upon stimulation with AR ligands, such as dihydrotestosterone, the MMTV luciferase reporter can be activated.
The assay is performed in 384 well plates. Briefly, MDA-kb2 cells are plated in 384 well plates at a density of approximately 2.4×10^4 cells/well in 50 μl medium. The medium is supplemented with 5% charcoal-dextran treated fetal bovine serum (Hyclone). Twenty four hours later, compounds prepared in DMSO are transferred to the cells. The cells are then stimulated with 0.3 nM final concentration of dihydrotestosterone (Sigma) and incubated at 37° C. for another 24 hours before the luciferase activity is assayed with 20 μl of Bright-Glo (Promega) using a luminometer (CLIPR). The expression of luciferase is used as an indicator of dihydrotestosterone-induced AR trans-activation. Each compound is tested in duplicates with a 12-concentration titration. IC50 values (defined as the concentration of test compound required to antagonize 50% of dihydrotestosterone-induced AR activity) are determined from the dose-response curve.

GR = molecular target: T3, GR (Homo sapiens, UniProt P04150); assay: Functional assay of glucocorticoid receptor antagonism (Gal4-GR-LBD luciferase reporter, COS-7 cells, dexamethasone-stimulated); conditions: antagonism of GR trans-activation induced by 10 nM dexamethasone
T3 construct: expressed in transfected cells; host or cells: COS-7 cells
T3 sequence (P04150 541-777): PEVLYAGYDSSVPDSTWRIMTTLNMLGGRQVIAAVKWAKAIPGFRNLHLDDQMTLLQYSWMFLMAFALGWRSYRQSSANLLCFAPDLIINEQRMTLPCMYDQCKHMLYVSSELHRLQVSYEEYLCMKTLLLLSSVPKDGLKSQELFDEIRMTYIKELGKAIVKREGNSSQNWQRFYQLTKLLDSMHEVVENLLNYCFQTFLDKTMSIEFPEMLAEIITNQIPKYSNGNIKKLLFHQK
Description: The GR antagonist activity of the compounds is determined in a mammalian two hybrid reporter system. The ligand binding domain of GR (GR-LBD, sequence encoding amino acid 541-778) is fused to the DNA binding domain of the yeast Gal4 gene. The GR gene is cloned from a human lung cDNA library with PCR.
The assay is performed in 384 well plates: COS-7 cells (ATCC) are transfected with expression vectors for Gal-4-GR-LBD and a luciferase reporter vector containing Gal4 binding sequence (pG5-Luc). Cells are plated in 384 well plates immediately after transfection (approximately 8000 cells/well in 50 μl medium). The medium is supplemented with 3% charcoal-dextran treated fetal bovine serum (Hyclone). Twenty four hours after transfection, compounds prepared in DMSO are transferred to the cells. The cells are then stimulated with 10 nM final concentration of dexamethasone (Sigma) and incubated at 37° C. for another 24 hours before the luciferase activity is assayed with 20 μl of Bright-Glo (Promega) using a luminometer (CLIPR). The expression of luciferase is used as an indicator of dexamethasone-induced GR trans-activation. Each compound is tested in duplicates with a 12-concentration titration. IC50 values (defined as the concentration of test compound required to antagonize 50% of dexamethasone-induced GR activity) are determined from the dose-response curve.

PR = molecular target: T4, PR (Homo sapiens, UniProt P06401); assay: Functional assay of progesterone receptor antagonism (progesterone-induced alkaline phosphatase activity in T-47D cells); conditions: antagonism of PR activity induced by 3 nM progesterone
T4 sequence (P06401 1-933): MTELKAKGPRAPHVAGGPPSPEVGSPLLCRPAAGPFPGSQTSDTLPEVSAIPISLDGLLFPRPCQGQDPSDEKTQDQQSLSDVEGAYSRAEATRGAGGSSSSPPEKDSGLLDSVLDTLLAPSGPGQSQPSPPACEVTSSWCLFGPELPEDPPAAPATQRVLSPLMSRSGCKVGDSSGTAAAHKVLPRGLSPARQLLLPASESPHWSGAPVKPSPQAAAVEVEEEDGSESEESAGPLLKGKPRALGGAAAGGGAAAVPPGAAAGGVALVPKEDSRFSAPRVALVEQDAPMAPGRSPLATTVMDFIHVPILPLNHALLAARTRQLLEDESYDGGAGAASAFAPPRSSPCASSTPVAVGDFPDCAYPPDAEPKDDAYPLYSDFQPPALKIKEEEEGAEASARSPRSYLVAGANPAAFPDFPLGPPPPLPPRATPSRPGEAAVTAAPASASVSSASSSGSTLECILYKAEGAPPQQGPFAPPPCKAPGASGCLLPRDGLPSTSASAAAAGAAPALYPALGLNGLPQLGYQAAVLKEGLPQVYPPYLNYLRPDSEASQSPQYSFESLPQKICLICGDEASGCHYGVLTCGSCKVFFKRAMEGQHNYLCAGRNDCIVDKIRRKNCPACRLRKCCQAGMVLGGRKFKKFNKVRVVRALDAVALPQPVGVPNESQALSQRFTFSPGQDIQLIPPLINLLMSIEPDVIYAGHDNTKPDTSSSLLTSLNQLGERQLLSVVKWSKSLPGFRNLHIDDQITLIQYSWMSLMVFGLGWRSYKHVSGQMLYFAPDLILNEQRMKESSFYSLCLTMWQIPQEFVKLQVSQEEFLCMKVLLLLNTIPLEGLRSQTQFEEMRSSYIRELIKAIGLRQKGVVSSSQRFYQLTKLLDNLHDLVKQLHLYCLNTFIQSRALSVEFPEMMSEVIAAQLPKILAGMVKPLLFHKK
Description: The PR antagonist activity of the compounds is determined by progesterone-induced alkaline phosphatase activity in the T-47D cell line (ATCC). In the T-47D breast cancer cells, progesterone specifically induces de novo synthesis of a membrane-associated alkaline phosphatase enzyme in a time and dose-dependent manner (Di Lorenzo et al., Cancer Research, 51: 4470-4475 (1991)). The alkaline phosphatase enzymatic activity can be measured with a chemiluminescent substrate, such as CSPD® (Applied Biosystems). The assay is performed in 384 well plates. Briefly, T-47D cells are plated in 384 well plates at a density of approximately 2.5×10^4 cells/well in 50 μl medium supplemented with 10% fetal bovine serum. Twenty four hours later, the medium is aspirated. New medium that is free of phenol red and serum is added to the cells. Compounds prepared in DMSO are transferred to the cells. The cells are then stimulated with 3 nM final concentration of progesterone (Sigma) and incubated at 37° C. for another 24 hours before the alkaline phosphatase is assayed with 25 μl of CSPD® (Applied Biosystems) using a luminometer (CLIPR). The expression of alkaline phosphatase is used as an indicator of progesterone-induced PR trans-activation. Each compound is tested in duplicates with a 12-concentration titration. […]

IC50 (MR)	IC50 (AR)	IC50 (GR)	IC50 (PR)	Compound
162 nM	52 nM	> 10000 nM	> 20000 nM	Cc1c(-c2csc(-c3ccccc3C(F)(F)F)n2)ccc2c1NC(=O)CO2 [5-Methyl-6-[2-(2-trifluoromethyl-phenyl)-thiazol-4-yl]-4H-benzo[1,4]oxazin-3-one]
47 nM			22 nM	Cc1cccc(-c2ccc3c(c2C)NC(=O)CO3)c1 [5-Methyl-6-m-tolyl-4H-benzo[1,4]oxazin-3-one]
54 nM	138 nM			Cc1ccccc1/C=C/c1ccc2c(c1)NC(=O)CO2 [6-(2-o-tolyl-vinyl)-4H-benzo[1,4]oxazin-3-one]
1.3 nM		210 nM		CC(=O)Oc1ccc(CCc2cc(C)c3c(c2)NC(=O)CO3)c(C)c1 [Acetic acid 3-methyl-4-[2-(8-methyl-3-oxo-3,4-dihydro-2H-benzo[1,4]oxazin-6-yl)-ethyl]-phenyl ester]
< 2 nM				CC(=O)Oc1ccc(CCc2ccc3c(c2)NC(=O)CO3)c(C)c1 [acetic acid 3-methyl-4-[2-(3-oxo-3,4-dihydro-2H-benzo[1,4]oxazin-6-yl)-ethyl]-phenyl ester]
